Source: patent publication US20240285539A1, “PROTECTIVE COATING FOR MOISTURE SENSITIVE PHARMACEUTICAL COMPOSITIONS” (R.P. Scherer Technologies, LLC, priority 2021, published 2024)

Assay: Solubility, hygroscopicity and moisture sensitivity of AKST-4290 API
Assay type: physicochemical
Text: Applicant has been able to prevent degradation utilizing the wax coating process described herein. This technique reduced the coating time and limited water uptake of core tablets improving impurity profile at T-0.
Specifically, the wax was applied as a sub-coat to the core tablets. In the case of AKST-4290, one of the purposes of this wax coat was to protect the API in the tablets from moisture. […] Although the relative humidity can be controlled during the upstream process of creating the tablet, this cannot be achieved in a coating process with aqueous solutions.

Hygroscopicity of API (in words): highly hygroscopic
Solubility of API (in words): highly soluble
Compound: Cc1cc(C(=O)N(C)C)cc(NC(=O)[C@H]2CCC(=O)N2C2CCN(Cc3ccc(Cl)c(C)c3)CC2)n1 [AKST-4290]
Stability on exposure to humidity (relative humidity over 40%, even for a couple of minutes): undergoes both physical and chemical changes
